Reference: publication PMC6255327, “Design of Antimicrobially Active Small Amphiphilic Peptide Dendrimers” (Molecules, 2009)
≈ marks a conversion by molar mass, not a printed value. Where a name gives a salt, the structure may show the parent alone. Read-outs that look alike come from different tables or passages of the source.

Columns and labels:
[1] = tested on: C. krusei ATCC 6258; assay: microbe, parasite or virus in culture; type: cell-based, Candida krusei; details: read-out: Minimal inhibitory concentration (MIC)
Experimental: (§1) Yeasts: Candida albicans ATCC 90028, Candida parapsilosis ATCC 22019 and Candida krusei ATCC 6258 were cultivated onto Sabouraud dextrose agar (Difco) during 24 hrs at 35 °C.
(§2) Medium: RPMI – 1640 (Sigma) supplemented with 0.2% (wt/vol) glucose, 0.3 g/L L-glutamine, 0.0053 g/L phenol red, buffered with morpholinopropanesulfonic acid (MOPS; Sigma) at a final concentration of 0.165 M and adjusted to pH 7.0 was prepared.
(§3) Reference Method: The broth microdilution susceptibility test was performed as described in Clinical and Laboratory Standards Institute (CLSI) reference method M27 – A2 (1). A series of the twofold dendrimers and amphotericin B dilutions in DMSO were diluted 1:49 with RPMI.

[2] = tested on: S. aureus ATCC 25923; assay: microbe, parasite or virus in culture; type: cell-based, Staphylococcus aureus; details: read-out: Minimal inhibitory concentration (MIC)
Experimental: (§4) Bacteria. Staphylococcus aureus ATCC 25923, Pseudomonas aeruginosa ATCC 27853, Escherichia coli ATCC 25922 and Staphylococcus aureus ATCC 43300 were cultivated on tryptone - soy agar (TSA; Oxoid). Klebsiella pneumoniaeATCC 13882, Bordetella bronchiseptica ATCC 4617, Acinetobacter baumannii ATCC 19606 were cultivated onto nutrient agar (Difco). Escherichia coli ATCC BAA-198 was cultivated on TSA with ceftazidime (10 µg/mL or 15.7 μM; Sigma). All strains were incubated during 24 hrs at 37 °C.
(§5) Medium. Mueller – Hinton Broth (Oxoid) was supplemented with cations: 12.5 mg Mg ^++/L and25 mg Ca^++/L. The pH of the medium after sterilization is between 7.2 and 7.4 [cation–adjusted Mueller – Hinton Broth” (CAMHB)].
(§6) Reference method. Broth microdilution susceptibility test was performed as described in […] reference method M7-A7 (2). A series of the twofold dendrimers dilutions in DMSO and twofold polymyxin B and penicillin G dilutions in CAMHB were diluted […] with CAMHB. Aliquots (95 µL) were dispensed into microdilution sterile plates (Mar-Four). Then, bacteria inoculum (5 µL) containing 5 × 10^4 CFU/mL were added. The final concentration of dendrimers ranged from 128 to 2 µg/mL [or 105 to 1.6 μM for an average molecular mass for 7 series (1213) and 61 to 0.9 μM for an average molecular mass for 10 series(2,103)], polymyxin B and penicillin G from 8 – 0.15 µg /mL (or 5.8 to 0.1 μM and 21.5 to 0.4 μM, respectively for polymyxin B and penicillin G), all in twofold dilution steps. The plates were incubated at 35 °C and read after 18 or 24 hours depending on bacterial strain. MICs (Minimal Inhibitory Concentration) was defined as the lowest drug concentration that reduced growth by 100%.

[3] = tested on: S. aureus ATCC 43300; type: cell-based, Staphylococcus aureus; details: ATCC 43300, 24 h
Experimental: as §4, §5, §6

[4] = tested on: P. aeruginosa ATCC 27853; type: cell-based, Pseudomonas aeruginosa; details: ATCC 27853, 24 h
Experimental: as §4, §5, §6

[5] = tested on: B. bronchiseptica ATCC 4617; type: cell-based, Bordetella bronchiseptica; details: ATCC 4617, 24 h
Experimental: as §4, §5, §6

[6] = tested on: A. baumani ATCC 19606; type: cell-based, Acinetobacter baumannii; details: ATCC 19606, 24 h
Experimental: as §4, §5, §6

[7] = tested on: K. pneumoniae ATCC 13882; type: cell-based, Klebsiella pneumoniae; details: ATCC 13882, 24 h
Experimental: as §4, §5, §6

[8] = tested on: E. coli ATCC BAA-198; type: cell-based, Escherichia coli; details: ATCC BAA-198, 24 h
Experimental: as §4, §5, §6

[9] = tested on: E.coli ATCC 25922; type: cell-based, Escherichia coli
Experimental: as §4, §5, §6

[10] = tested on: C. albicans ATCC 90028; type: cell-based, Candida albicans; details: ATCC 90028, 48 h, pH 7
Experimental: as §1, §2, §3

[11] = tested on: C. parapsilosis ATCC 22019; type: cell-based, Candida parapsilosis; details: ATCC 22019, 48 h, pH 7
Experimental: as §1, §2, §3

[12] = S. aureus ATCC 25923, broth microdilution CLSI M7-A7, CAMHB pH 7.2-7.4, 35 °C, read after 18 or 24 h, MIC = lowest concentration that reduced growth by 100%
[13] = E. coli ATCC 25922, broth microdilution CLSI M7-A7, CAMHB, 35 °C, read after 18 or 24 h, 100% growth reduction

SMILES	MIC ([1]; Pichia kudriavzevii, ATCC6258, C. krusei ATCC 6258, broth microdilution CLSI M27-A2, RPMI-1640 with MOPS pH 7.0, 35 °C, read after 24 and 48 h, 100% growth reduction) [µM]	MIC ([2]; ATCC 25923, 24 h, pH 7.2) [µM]	Minimal inhibitory concentration (MIC) [3] [µM]	Minimal inhibitory concentration (MIC) [4] [µM]	Minimal inhibitory concentration (MIC) [5] [µM]	Minimal inhibitory concentration (MIC) [6] [µM]	Minimal inhibitory concentration (MIC) [7] [µM]	Minimal inhibitory concentration (MIC) [8] [µM]	Minimal inhibitory concentration (MIC) ([9]; ATCC 25922, 24 h) [µM]	Minimal inhibitory concentration (MIC) [10] [µM]	MIC ([1]; ATCC 6258, 48 h, pH 7) [µM]	Minimal inhibitory concentration (MIC) [11] [µM]	MIC [2, 12] [µM]	Minimal inhibitory concentration (MIC) [9, 13] [µM]	MIC ([2]; Staphylococcus aureus, ATCC25923, S. aureus ATCC 25923, broth microdilution CLSI M7-A7, CAMHB pH 7.2-7.4, 35 °C, read after 18 or 24 h, MIC = lowest concentration that reduced growth by 100%) [µM]
NCCCN(CCCN)CCC[C@@H](CO)N(CCCN)CCCN [Compound 5c, N,N’,N,N’-tetrakis(3-aminopropyl)-L-α,δ-diaminopentanol]	–	–	–	–	–	–	–	–	–	–	–	–	113 (≈ 39.2 µg/mL)	>226	–
NCCCC[C@H](NC(=O)OCc1ccccc1Cl)C(=O)N[C@@H](Cc1ccccc1)C(=O)NCCCN(CCCNC(=O)[C@H](Cc1ccccc1)NC(=O)[C@H](CCCCN)NC(=O)OCc1ccccc1Cl)C[C@@H](CO)N(CCCNC(=O)[C@H](Cc1ccccc1)NC(=O)[C@H](CCCCN)NC(=O)OCc1ccccc1Cl)CCCNC(=O)[C@H](Cc1ccccc1)NC(=O)[C@H](CCCCN)NC(=O)OCc1ccccc1Cl [Compound 10a, N,N',N,N’-tetrakis[(N^α-2-chlorobenzyloxycarbonyl)-L-lysil-L-phenylalanyl-3-aminopropyl]-L-α,δ-diaminopropanol hexahydrochloride]	–	1.7	3.4	30.2	3.4	13.8	>55	6.9	7.3	6.8	6.8	6.8	–	–	–
NCCCC[C@H](NC(=O)OCc1ccccc1Cl)C(=O)NCCCN[C@@H](CCN(CCCNC(=O)[C@H](CCCCN)NC(=O)OCc1ccccc1Cl)CCCNC(=O)[C@H](CCCCN)NC(=O)OCc1ccccc1Cl)C(=O)NCc1ccccc1 [Compound 7f, N,N,N’-tris[(N^α-2-chlorobenzyloxycarbonyl)-L-lysil-3-aminopropyl]-L-diaminobutyro benzylamide pentahydrochloride]	–	11.7	10.3	48	11	>88	>88	>89	48	>89	44	89	–	–	–
NCCCC[C@H](NC(=O)OCc1ccccc1Cl)C(=O)NCCCN[C@@H](CCCCN(CCCNC(=O)[C@H](CCCCN)NC(=O)OCc1ccccc1Cl)CCCNC(=O)[C@H](CCCCN)NC(=O)OCc1ccccc1Cl)C(=O)NCc1ccccc1 [Compound 7h, N,N,N’-tris[(N^α-2-chlorobenzyloxycarbonyl)-L-lysil-3-aminopropyl]-L-lysine benzylamide penta-hydrochloride]	–	21.6	21.6	86	5.4	>86	>86	43	86	>86	43	86	–	–	–
NCCCN(CCCN)CCCC[C@@H](CO)N(CCCN)CCCN [Compound 5d, N,N’,N,N’-tetrakis(3-aminopropyl)-L-α,ε-diaminohexanol]	–	–	–	–	–	–	–	–	–	–	–	–	221 (≈ 79.7 µg/mL)	>221	–

More lines, now with the values ahead:

MIC ([1]; Pichia kudriavzevii, ATCC6258, C. krusei ATCC 6258, broth microdilution CLSI M27-A2, RPMI-1640 with MOPS pH 7.0, 35 °C, read after 24 and 48 h, 100% growth reduction) [µM]	MIC ([2]; ATCC 25923, 24 h, pH 7.2) [µM]	Minimal inhibitory concentration (MIC) [3] [µM]	Minimal inhibitory concentration (MIC) [4] [µM]	Minimal inhibitory concentration (MIC) [5] [µM]	Minimal inhibitory concentration (MIC) [6] [µM]	Minimal inhibitory concentration (MIC) [7] [µM]	Minimal inhibitory concentration (MIC) [8] [µM]	Minimal inhibitory concentration (MIC) ([9]; ATCC 25922, 24 h) [µM]	Minimal inhibitory concentration (MIC) [10] [µM]	MIC ([1]; ATCC 6258, 48 h, pH 7) [µM]	Minimal inhibitory concentration (MIC) [11] [µM]	MIC [2, 12] [µM]	Minimal inhibitory concentration (MIC) [9, 13] [µM]	MIC ([2]; Staphylococcus aureus, ATCC25923, S. aureus ATCC 25923, broth microdilution CLSI M7-A7, CAMHB pH 7.2-7.4, 35 °C, read after 18 or 24 h, MIC = lowest concentration that reduced growth by 100%) [µM]	SMILES
1.1 (≈ 1.02 µg/mL)	–	–	–	–	–	–	–	–	–	–	–	–	–	–	C[C@@H]1[C@H](O)[C@@H](C)/C=C/C=C/C=C/C=C/C=C/C=C/C=C/[C@H](O[C@@H]2O[C@H](C)[C@@H](O)[C@H](N)[C@@H]2O)C[C@@H]2O[C@](O)(C[C@@H](O)C[C@@H](O)[C@H](O)CC[C@@H](O)C[C@@H](O)CC(=O)O[C@H]1C)C[C@H](O)[C@H]2C(=O)O [amphotericin B, reference compound]
–	3.4	1.7	14	1.7	3.4	>54	3.4	6.8	6.8	3.4	3.4	–	–	–	NCCCC[C@H](NC(=O)OCc1ccccc1Cl)C(=O)N[C@@H](Cc1ccccc1)C(=O)NCCCN(CCCC[C@@H](CO)N(CCCNC(=O)[C@H](Cc1ccccc1)NC(=O)[C@H](CCCCN)NC(=O)OCc1ccccc1Cl)CCCNC(=O)[C@H](Cc1ccccc1)NC(=O)[C@H](CCCCN)NC(=O)OCc1ccccc1Cl)CCCNC(=O)[C@H](Cc1ccccc1)NC(=O)[C@H](CCCCN)NC(=O)OCc1ccccc1Cl [Compound 10d, N,N',N,N’-tetrakis[(N^α-2-chlorobenzyloxycarbonyl)-L-lysil-L-phenylalanyl-3-aminopropyl]-L-α,ε-diaminohexanol hexahydrochloride]
–	–	–	–	–	–	–	–	–	–	–	–	–	–	6.6 (≈ 2.21 µg/mL)	CC1(C)S[C@@H]2[C@H](NC(=O)Cc3ccccc3)C(=O)N2[C@H]1C(=O)O [Penicillin G, reference compound]
–	1.3	7.3	47	3.4	13.8	>55	6.9	7.3	6.9	6.9	6.9	–	–	–	NCCCC[C@H](NC(=O)OCc1ccccc1Cl)C(=O)N[C@@H](Cc1ccccc1)C(=O)NCCCN(CCCNC(=O)[C@H](Cc1ccccc1)NC(=O)[C@H](CCCCN)NC(=O)OCc1ccccc1Cl)CC[C@@H](CO)N(CCCNC(=O)[C@H](Cc1ccccc1)NC(=O)[C@H](CCCCN)NC(=O)OCc1ccccc1Cl)CCCNC(=O)[C@H](Cc1ccccc1)NC(=O)[C@H](CCCCN)NC(=O)OCc1ccccc1Cl [Compound 10b, N,N',N,N’-tetrakis[(N^α-2-chlorobenzyloxycarbonyl)-L-lysil-L-phenylalanyl-3-aminopropyl]-L-α,δ-diaminobutanol hexahydrochloride]
